Data taken from patent publication US8629141B2, “Spiro-oxindole MDM2 antagonists” (The Regents of the University of Michigan, priority 2011, dated 2014).

target: recombinant human His-tagged MDM2 protein (residues 1-118) (Homo sapiens (Human), UniProt Q00987); experiment: Fluorescence-polarization MDM2 competitive binding assay; settings: FP competition with PMDM6-F peptide (1 nM), MDM2 10 nM, 3 h incubation; read-out: Binding affinities to MDM2 (1-118) IC50
Description: The binding affinity of the MDM2 inhibitors disclosed herein was determined using a fluorescence polarization-based (FP-based) binding assay using a recombinant human His-tagged MDM2 protein (residues 1-118) and a fluorescently tagged p53-based peptide.
(García-Echeverria et al., J. Med. Chem. 43: 3205-3208 (2000)). […] The assay was performed in the buffer: 100 mM potassium phosphate, pH 7.5; 100 μg/mL bovine gamma globulin; 0.02% sodium azide, 0.01% Triton X-100) and the polarization values were measured after 3 h of incubation using an ULTRA READER (Tecan U.S. Inc., Research Triangle Park, N.C.). […] The Kd value was calculated using the equation: Kd value=IC50−L0/2.
100 μg/mL bovine gamma globulin; 0.02% sodium azide, 0.01% Triton X-100), were added in a Dynex 96-well, black, round-bottom plate to produce a final volume of 125 μL. […] The polarization values were measured after 3 h of incubation. […] Curve fitting was performed using […] PRISM software (GraphPad Software, Inc., San Diego, Calif.).

| SMILES | IC50 |
| --- | --- |
| O=C(NCc1nnn[nH]1)[C@@H]1NC2(CCCCC2)[C@@]2(C(=O)Nc3cc(Cl)ccc32)[C@H]1c1cccc(Cl)c1F [Compound 32] | < 100 nM |
| CCC1(CC)N[C@@H](C(=O)NCCN2CCOCC2)[C@H](c2cccc(Cl)c2F)[C@]12C(=O)Nc1cc(Cl)ccc12 [Compound 6] | < 1000 nM |
| O=C(NCCN1CCOCC1)[C@@H]1NC2(CCC(F)(F)CC2)[C@]2(C(=O)Nc3cc(Cl)ccc32)[C@H]1c1cccc(Cl)c1F [Compound 8] | < 5000 nM |
| O=C(NCCN1CCOCC1)[C@@H]1NC2(CCOCC2)[C@@]2(C(=O)Nc3cc(Cl)ccc32)[C@H]1c1cccc(Cl)c1F [Compound 12] | < 5000 nM |
| O=C(NCCN1CCOCC1)[C@@H]1NC2(CCC(F)(F)CC2)[C@@]2(C(=O)Nc3cc(Cl)ccc32)[C@H]1c1cccc(Cl)c1F [Compound 7] | < 1000 nM |
| O=C(NC1CCC(O)CC1)[C@@H]1NC[C@@]2(C(=O)Nc3cc(Cl)ccc32)[C@H]1c1cccc(Cl)c1F (some centres unmarked) [Compound 5] | > 10000 nM |
| CS(=O)(=O)CCN1CCC(NC(=O)[C@@H]2NC3(CCCCC3)[C@@]3(C(=O)Nc4cc(Cl)ccc43)[C@H]2c2cccc(Cl)c2F)CC1 [Compound 25] | < 100 nM |
| O=C(O)[C@@H]1NC2(CCCCC2)[C@@]2(C(=O)Nc3cc(Cl)ccc32)[C@H]1c1cccc(Cl)c1F [Compound 26] | < 500 nM |
| CC1(C)N[C@@H](C(=O)NC2CCC(O)CC2)[C@H](c2cccc(Cl)c2F)[C@]12C(=O)Nc1cc(Cl)ccc12 (some centres unmarked) [Compound 1] | 201 nM |
| CS(=O)(=O)CCNC(=O)[C@@H]1NC2(CCCCC2)[C@@]2(C(=O)Nc3cc(Cl)ccc32)[C@H]1c1cccc(Cl)c1F [Compound 20] | < 100 nM |
| O=C(NCCN1CCOCC1)[C@@H]1NC2(CCCCC2)[C@@]2(C(=O)Nc3cc(Cl)ccc32)[C@H]1c1cccc(Cl)c1F [Compound 15] | < 100 nM |

Other lines, results leading:

| IC50 | SMILES |
| --- | --- |
| < 100 nM | O=C(NC1CCC(O)CC1)[C@@H]1NC2(CCCCC2)[C@@]2(C(=O)Nc3cc(Cl)ccc32)[C@H]1c1cccc(Cl)c1F (some centres unmarked) [Compound 41] |
| > 10000 nM | CNC(=O)[C@@H]1NC2(CCCCC2)[C@@]2(C(=O)Nc3cc(Cl)ccc32)[C@H]1c1cc(Cl)cnc1OC(C)(C)C(=O)O [Compound 35] |
| < 100 nM | CC1(O)CC(NC(=O)[C@@H]2NC3(CCCCC3)[C@@]3(C(=O)Nc4cc(Cl)ccc43)[C@H]2c2cccc(Cl)c2F)C1 (some centres unmarked) [Compound 33] |
| > 10000 nM | CNC(=O)[C@@H]1NC2(CCCCC2)[C@@]2(C(=O)Nc3cc(Cl)ccc32)[C@H]1c1cc(Cl)ccc1OC(C)(C)C(=O)O [Compound 34] |
| < 100 nM | O=C(NC1CN(C(=O)O)C1)[C@@H]1NC2(CCCCC2)[C@@]2(C(=O)Nc3cc(Cl)ccc32)[C@H]1c1cccc(Cl)c1F [Compound 39] |

same assay, conditions: FP competition with PMDM6-F peptide; read-out: Binding affinities to MDM2 (1-118) Ki

| Ki | SMILES |
| --- | --- |
| 26.4 nM | CC1(C)N[C@@H](C(=O)NC2CCC(O)CC2)[C@H](c2cccc(Cl)c2F)[C@]12C(=O)Nc1cc(Cl)ccc12 (some centres unmarked) [Compound 1] |

system: not listed separately; experiment: Stability of compounds in solution, 1:1 MeOH:H2O; assay type: physicochemical; settings: ultra performance liquid chromatography (FIG. 4)

| Stability in solution | SMILES |
| --- | --- |
| more stable than MI-77301 | O=C(NC1CN(C(=O)O)C1)[C@@H]1NC2(CCCCC2)[C@@]2(C(=O)Nc3cc(Cl)ccc32)[C@H]1c1cccc(Cl)c1F [compound 39] |

system: not listed separately; experiment: Stability of compounds in solution, 1:1 CH3CN:H2O; assay type: physicochemical; settings: ultra performance liquid chromatography (FIG. 5)

| Stability in solution | SMILES |
| --- | --- |
| more stable than MI-77301 | O=C(NC1CN(C(=O)O)C1)[C@@H]1NC2(CCCCC2)[C@@]2(C(=O)Nc3cc(Cl)ccc32)[C@H]1c1cccc(Cl)c1F [compound 39] |

system: not listed separately; experiment: Stability in 1:1 MeOH:H2O with 10% TFA; assay type: physicochemical; settings: 1:1 MeOH:H2O with 10% TFA added, UPLC (FIG. 6)
Description: The stability of Compound Example Nos. 10 and 11 were determined in 1:1 MeOH:H2O with 10% TFA added using ultra performance liquid chromatography (FIG. 6).

| Stability in solution (isomer conversion) | SMILES |
| --- | --- |
| converted into Compound Example No. 11 | O=C(NC1CCC(O)CC1)[C@@H]1NC2(CCOCC2)[C@]2(C(=O)Nc3cc(Cl)ccc32)[C@H]1c1cccc(Cl)c1F (some centres unmarked) [compound 10] |
